Experimental data from US11596626B2, “Compound for use against pathogenic Neisseria and Haemophilus species and Moraxella catarrhalis” (priority 2017, dated 2023).
“Also recorded” adds a separate entry of the source.

Columns and labels:
N. gonorrhoeae = experiment: Vaginal colonization of CEAtg female mice, re-isolation of gonococci by swab; type: in vivo, Neisseria gonorrhoeae
Experimental: By using genetically modified mice (CEA-transgenic; CEAtg mice), which express a human receptor for the gonococcal Opa-adhesin on their mucosal surface, it is possible to study the initial colonization of the upper genital tract by N. gonorrhoeae and to re-isolate these pathogens after intra-vaginal challenge (FIG. 7). 6 to 8 week old, female wildtype (black) or CEA-transgenic (CEAtg, red) mice were infected with N. gonorrhoeae. 2 h after infection, the animals were treated with 20 μl buffer containing solvent (DMSO) or 50 μM NQNO (Compound represented by the Formula (5)). 20 h later, vaginal swaps were taken and plated on selective agar. Each dot refers to bacteria isolated from an individual animal (n≥5) (cf. FIG. 7). […]
In a further experiment, experimental vaginal infection of female mice with N. gonorrhoeae was performed as previously described in the literature (P. Muenzner, V. Bachmann, J. Hentschel, W. Zimmermann, C. R. Hauck, Human-restricted bacterial pathogens block shedding of epithelial cells by stimulating integrin activation. Science 329, 1197-1201 (2010)). […] Serial dilutions of re-isolated bacteria were plated on GC agar containing chloramphenicol (10 μg/ml) and erythromycin (7 μg/ml) and the colonies were counted after 20 h of incubation at 37° C., 5% CO2.

Lactobacillus brevis = experiment: Growth curves in liquid culture (optical density) vs DMSO control; type: cell-based; conditions: 5-50 μM, FIG. 4
Experimental: Growth experiments with NQNO were conducted against Neisseria gonorrhoeae strain MS11 (Edwards, M., et al., Antigenic analysis of gonococcal pili using monoclonal antibodies, J Exp Med, 1984. 160(6): p. 1782-91) and a multidrug-resistant N. gonorrhoeae isolate from Slovenia (Unemo M, Golparian O, Potočnik M, Jeverica S. Treatment failure of pharyngeal gonorrhoea with internationally recommended first-line ceftriaxone verified in Slovenia, September 2011. Euro Surveill. 2012; 17(25):pii=20200), Neisseria macacae, and Lactobacillus brevis. The bacteria were inoculated in GC (Difco™ GC medium Ref. 228950, BD Becton Dickinson) and PPM broth (15 g/L Proteon Pepton, 1 g/L soluble starch, 5 g/L NaCl, 4 g/L KH2PO4, 1 g/L K2HPO4, pH 7.5) (Neisseriae) or TSB (BBL™ Trypticase Soy Broth Ref 211768, BD Becton Dickinson) (Lactobacillus) supplemented with solvent (DMSO) or the indicated concentrations of NQNO (5-50 04) and their growth at 37° C. was monitored over the course of 10 h by optical density readings in 30 minute intervals. […]
Before every experiment, bacteria were pre-cultured in 5 ml liquid medium for at least 2 hours then harvested and resuspended in PBS (phosphate buffered saline). Optical density (OD) was determined and a volume equal to an OD of 0.2 was inoculated into 5 ml of the respective medium. […] Optical density was determined every 0.5 h.

[1] = Tissue integrity and tolerability after topical vaginal application in CEAtg mice; type: in vivo
Experimental: 6 to 8 week old, female CEA-transgenic mice were infected with N. gonorrhoeae. 2 h after infection, the animals were treated with 20 μl buffer containing solvent (DMSO) or 50 μM NQNO (Compound represented by the Formula (5)). 20 h later, the genital tract was excised and cryosections were stained for cell nuclei (Hoechst; blue), human CEA (red) and N. gonorrhoeae (gonococci, green) (FIG. 8).
Additional cryosections from the same samples were stained for cell nuclei (Hoechst; blue), human collagen (red) and N. gonorrhoeae (gonococci, green) (FIG. 9).
6 to 8 week old, female CEA-transgenic mice were treated with 20 μl buffer containing solvent (DMSO) or 50 μM NQNO (Compound represented by the Formula (5)). 20 h later, the genital tract was excised, fixed, paraffin embedded and tissue sections were stained with HE (Haematoxilin/Eosin) solution.
In particular, in the above experiment the genital tract of infected and NQNO/DMSO or DMSO treated animals was excised and placed in 4% neutral buffer containing formalin overnight followed by 0.4% PFA (paraformaldehyde) treatment. The tissue was then dehydrated and embedded in paraffin. 10 μm serial sections were cut, deparaffinized and rehydrated in a graded series (100% to 75%) of ethanol. Sections were serially stained with Hematoxilin solution according to Mayer (Sigma) and 0.5% Eosin G solution (Roth).

MS74 cells = experiment: Microscopic evaluation of treated cells; type: cell-based, human; conditions: up to 50 μM, 2 days, FIG. 14
Description: FIG. 14: Microscopic evaluation of MS74 cells treated for two days with the indicated concentrations of NQNO compared to DMSO control.

## CCCCCCCCCc1cc(=O)c2ccccc2n1O [NQNO, 1-Hydroxy-2-nonylquinolin-4(1H)-one]
N. gonorrhoeae; CEAtg female mice, 20 μl of 50 μM topical 2 h after infection, swabs 20 h later, FIG. 7
  Number of re-isolated gonococci (vaginal colonization): significantly (***; p<0.001) reduces the number of re-isolated gonococci; also recorded: completely blocks vaginal colonization
N. gonorrhoeae; CEAtg mice, 10 μl of 25 μM or 50 μM intravaginally 1 h after infection, swabs 24 h later, FIG. 15
  Re-isolated gonococci from the genital tract: hardly any gonococci could be re-isolated
Lactobacillus brevis
  Effect on growth: did not compromise the growth
[1]; CEAtg mice, 20 μl of 50 μM, 20 h, FIG. 10
  Histology of vaginal tract epithelium (HE staining): intact striated epithelium
[1]; infected CEAtg mice, 20 μl of 50 μM topical, 20 h, FIGS. 8 and 9
  Integrity of mucosal surface and subepithelial tissue (CEA and collagen staining): continuous and unaltered mucosal surface; also recorded: does not damage the mucosal surface
[1]; single topical application
  Signs of discomfort in treated mice: did not show any signs of discomfort
MS74 cells
  Morphology and overall phenotype of cells: did not change
